Reference: PubChem BioAssay AID1963975 (Molecular Pharmacology Branch, DTP, NCI, 2024)
pIC50: −log10 of the molar value. Values belong to the compound of their own block, whether it stands above or below them.

Tested on: 624824-186-R-J2-PDC multicell spheroids, viability
Test: Anticancer human tumor 624824-186-R-J2-PDC patient-derived colon adenocarcinoma cell line growth inhibition [PI3K]
Conditions: for pIC50: curve of first compound; for viability, T/C: stronger effect = lower value
Outline: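 We assembled tumor spheroids that included a stromal compartment of HUVEC and MSCs, then exposed them to targeted agents alone and together with PI3K pathway inhibitors. Concentration series descended by half-log from clinically achievable Cmax levels. Viability served as the endpoint.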

[1] = second compound 0.00316 µM, first compound 0.0316 µM
[2] = second compound 0.00316 µM, first compound 0.1 µM
[3] = second compound 0.00316 µM, first compound 0.316 µM
[4] = second compound 0.00316 µM, first compound 1 µM
[5] = second compound 0.00316 µM, first compound 3.16 µM
[6] = second compound 0.00316 µM, first compound 10 µM
[7] = second compound 0.01 µM, first compound 0.0316 µM
[8] = second compound 0.01 µM, first compound 0.1 µM
[9] = second compound 0.01 µM, first compound 0.316 µM
[10] = second compound 0.01 µM, first compound 1 µM
[11] = second compound 0.01 µM, first compound 3.16 µM
[12] = second compound 0.01 µM, first compound 10 µM
[13] = second compound 0.0316 µM, first compound 0.0316 µM
[14] = second compound 0.0316 µM, first compound 0.1 µM
[15] = second compound 0.0316 µM, first compound 0.316 µM
[16] = second compound 0.0316 µM, first compound 1 µM
[17] = second compound 0.0316 µM, first compound 3.16 µM
[18] = second compound 0.0316 µM, first compound 10 µM
[19] = second compound 0.1 µM, first compound 0.0316 µM
[20] = second compound 0.1 µM, first compound 0.1 µM
[21] = second compound 0.1 µM, first compound 0.316 µM
[22] = second compound 0.1 µM, first compound 1 µM
[23] = second compound 0.1 µM, first compound 3.16 µM
[24] = second compound 0.1 µM, first compound 10 µM
[25] = second compound 0.316 µM, first compound 0.0316 µM
[26] = second compound 0.316 µM, first compound 0.1 µM
[27] = second compound 0.316 µM, first compound 0.316 µM
[28] = second compound 0.316 µM, first compound 1 µM
[29] = second compound 0.316 µM, first compound 3.16 µM
[30] = second compound 0.316 µM, first compound 10 µM
[31] = second compound 1 µM, first compound 0.0316 µM
[32] = second compound 1 µM, first compound 0.1 µM
[33] = second compound 1 µM, first compound 0.316 µM
[34] = second compound 1 µM, first compound 1 µM
[35] = second compound 1 µM, first compound 3.16 µM
[36] = second compound 1 µM, first compound 10 µM
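Also: spheroids exposed to agents for 7 days before viability read.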
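For viability, T/C in this document: 100% = DMSO vehicle treated spheroids.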

pIC50 (second compound 0.00316 µM): < 5.00
pIC50 (second compound 0.01 µM): < 5.00
pIC50 (second compound 0.0316 µM): < 5.00
pIC50 (second compound 0.1 µM): < 5.00
pIC50 (second compound 0.316 µM): < 5.00
pIC50 (second compound 1 µM): < 5.00
Structure (SMILES): CC(Cn1ccc(-c2ccc(C#N)c(Cl)c2)n1)NC(=O)c1cc(C(C)O)[nH]n1 (stereo unspecified) + CC(Nc1ccc2c(c1)OCCn1cc(N3C(=O)OCC3C(F)F)nc1-2)C(N)=O
viability, T/C [1]: 86.5%
viability, T/C [2]: 102%
viability, T/C [3]: 108%
viability, T/C [4]: 103%
viability, T/C [5]: 107%
viability, T/C [6]: 127%
viability, T/C [7]: 124%
viability, T/C [8]: 88.3%
viability, T/C [9]: 88.5%
viability, T/C [10]: 97.7%
viability, T/C [11]: 99.5%
viability, T/C [12]: 116%
viability, T/C [13]: 77.1%
viability, T/C [14]: 79.6%
viability, T/C [15]: 83.1%
viability, T/C [16]: 93.9%
viability, T/C [17]: 108%
viability, T/C [18]: 104%
viability, T/C [19]: 81.5%
viability, T/C [20]: 77.9%
viability, T/C [21]: 76.9%
viability, T/C [22]: 82.1%
viability, T/C [23]: 93.2%
viability, T/C [24]: 103%
viability, T/C [25]: 76.7%
viability, T/C [26]: 91.1%
viability, T/C [27]: 103%
viability, T/C [28]: 69.4%
viability, T/C [29]: 83.4%
viability, T/C [30]: 95.9%
viability, T/C [31]: 87.9%
viability, T/C [32]: 76%
viability, T/C [33]: 88.2%
viability, T/C [34]: 94%
viability, T/C [35]: 76.4%
viability, T/C [36]: 95.9%

pIC50 (second compound 0.00316 µM): < 5.00
pIC50 (second compound 0.01 µM): < 5.00
pIC50 (second compound 0.0316 µM): < 5.00
pIC50 (second compound 0.1 µM): < 5.00
pIC50 (second compound 0.316 µM): < 5.00
pIC50 (second compound 1 µM): < 5.00
Structure (SMILES): Cn1ncc(Cl)c1-c1cc(C(=O)NC(CN)Cc2cccc(F)c2)sc1Cl (stereo unspecified) + CC(Nc1ccc2c(c1)OCCn1cc(N3C(=O)OCC3C(F)F)nc1-2)C(N)=O
viability, T/C [1]: 106%
viability, T/C [2]: 97.5%
viability, T/C [3]: 75.8%
viability, T/C [4]: 87.1%
viability, T/C [5]: 67.7%
viability, T/C [6]: 78.8%
viability, T/C [7]: 107%
viability, T/C [8]: 78.8%
viability, T/C [9]: 70.9%
viability, T/C [10]: 78.8%
viability, T/C [11]: 79.6%
viability, T/C [12]: 50.4%
viability, T/C [13]: 101%
viability, T/C [14]: 71.9%
viability, T/C [15]: 75.7%
viability, T/C [16]: 85.9%
viability, T/C [17]: 78.7%
viability, T/C [18]: 58.8%
viability, T/C [19]: 75%
viability, T/C [20]: 100%
viability, T/C [21]: 74.5%
viability, T/C [22]: 81.8%
viability, T/C [23]: 76.9%
viability, T/C [24]: 53.1%
viability, T/C [25]: 71.3%
viability, T/C [26]: 81.5%
viability, T/C [27]: 92.6%
viability, T/C [28]: 85.1%
viability, T/C [29]: 75.4%
viability, T/C [30]: 57.3%
viability, T/C [31]: 86.7%
viability, T/C [32]: 77.8%
viability, T/C [33]: 95.4%
viability, T/C [34]: 76.7%
viability, T/C [35]: 75.7%
viability, T/C [36]: 59.3%

pIC50 (second compound 0.00316 µM): < 5.00
pIC50 (second compound 0.01 µM): < 5.00
pIC50 (second compound 0.0316 µM): < 5.00
pIC50 (second compound 0.1 µM): < 5.00
pIC50 (second compound 0.316 µM): < 5.00
pIC50 (second compound 1 µM): 5.88
Structure (SMILES): Cn1nccc1Nc1nccc(-c2ccn(C(CO)c3ccc(Cl)c(F)c3)c(=O)c2)n1 (stereo unspecified) + CC(Nc1ccc2c(c1)OCCn1cc(N3C(=O)OCC3C(F)F)nc1-2)C(N)=O
viability, T/C [1]: 79.4%
viability, T/C [2]: 78.9%
viability, T/C [3]: 80.1%
viability, T/C [4]: 84.7%
viability, T/C [5]: 104%
viability, T/C [6]: 99.5%
viability, T/C [7]: 80.5%
viability, T/C [8]: 73.6%
viability, T/C [9]: 77.6%
viability, T/C [10]: 90.5%
viability, T/C [11]: 102%
viability, T/C [12]: 116%
viability, T/C [13]: 79%
viability, T/C [14]: 71.8%
viability, T/C [15]: 72%
viability, T/C [16]: 91.6%
viability, T/C [17]: 86.6%
viability, T/C [18]: 93.2%
viability, T/C [19]: 87.5%
viability, T/C [20]: 61.4%
viability, T/C [21]: 68.8%
viability, T/C [22]: 95.6%
viability, T/C [23]: 84.9%
viability, T/C [24]: 59%
viability, T/C [25]: 63%
viability, T/C [26]: 63.5%
viability, T/C [27]: 68.6%
viability, T/C [28]: 73.7%
viability, T/C [29]: 63.9%
viability, T/C [30]: 40.4%
viability, T/C [31]: 73.1%
viability, T/C [32]: 86.4%
viability, T/C [33]: 61%
viability, T/C [34]: 52.9%
viability, T/C [35]: 42.5%
viability, T/C [36]: 29%
